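In this assay, cells in 96-well plates receive the compound at five concentrations for 48 hours. Endpoints are linearly interpolated between the surrounding concentrations. GI50: concentration for 50% inhibition of growth. TGI marks complete inhibition of growth.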
Key:
Assay in all cases: NCI anticancer screen, dose series, 48 h
786-0 renal = tested on: 786-0 renal
A498 renal = tested on: A498 renal
A549 NSCLC = tested on: A549 NSCLC
ACHN renal = tested on: ACHN renal
BT-549 breast = tested on: BT-549 breast
CAKI-1 renal = tested on: CAKI-1 renal
CCRF-CEM leukemia = tested on: CCRF-CEM leukemia
COLO 205 colon = tested on: COLO 205 colon
DU-145 prostate = tested on: DU-145 prostate
EKVX NSCLC = tested on: EKVX NSCLC
HCC-2998 colon = tested on: HCC-2998 colon
HCT-116 colon = tested on: HCT-116 colon
HCT-15 colon = tested on: HCT-15 colon
HL-60(TB) leukemia = tested on: HL-60(TB) leukemia
HOP-62 NSCLC = tested on: HOP-62 NSCLC
HOP-92 NSCLC = tested on: HOP-92 NSCLC
HS 578T breast = tested on: HS 578T breast
HT29 colon = tested on: HT29 colon
IGROV1 ovarian = tested on: IGROV1 ovarian
K-562 leukemia = tested on: K-562 leukemia
KM12 colon = tested on: KM12 colon
LOX IMVI melanoma = tested on: LOX IMVI melanoma
M14 melanoma = tested on: M14 melanoma
MALME-3M melanoma = tested on: MALME-3M melanoma
MCF7 breast = tested on: MCF7 breast
MDA-MB-231 breast = tested on: MDA-MB-231 breast
MDA-MB-435 = tested on: MDA-MB-435
MOLT-4 leukemia = tested on: MOLT-4 leukemia
NCI-H226 lung = tested on: NCI-H226 lung
NCI-H23 lung = tested on: NCI-H23 lung
NCI-H460 lung = tested on: NCI-H460 lung
NCI-H522 lung = tested on: NCI-H522 lung
NCI/ADR-RES ovarian = tested on: NCI/ADR-RES ovarian
OVCAR-3 ovarian = tested on: OVCAR-3 ovarian
OVCAR-4 ovarian = tested on: OVCAR-4 ovarian
OVCAR-5 ovarian = tested on: OVCAR-5 ovarian
OVCAR-8 ovarian = tested on: OVCAR-8 ovarian
PC-3 prostate = tested on: PC-3 prostate
RPMI-8226 leukemia = tested on: RPMI-8226 leukemia
RXF 393 renal = tested on: RXF 393 renal
SF-268 CNS = tested on: SF-268 CNS
SF-295 CNS = tested on: SF-295 CNS
SF-539 CNS = tested on: SF-539 CNS
SK-MEL-2 melanoma = tested on: SK-MEL-2 melanoma
SK-MEL-28 melanoma = tested on: SK-MEL-28 melanoma
SK-MEL-5 melanoma = tested on: SK-MEL-5 melanoma
SK-OV-3 ovarian = tested on: SK-OV-3 ovarian
SN12C renal = tested on: SN12C renal
SNB-19 CNS = tested on: SNB-19 CNS
SNB-75 CNS = tested on: SNB-75 CNS
SR leukemia = tested on: SR leukemia
SW-620 colon = tested on: SW-620 colon
T-47D breast = tested on: T-47D breast
TK-10 renal = tested on: TK-10 renal
U251 CNS = tested on: U251 CNS
UACC-257 melanoma = tested on: UACC-257 melanoma
UACC-62 melanoma = tested on: UACC-62 melanoma
UO-31 renal = tested on: UO-31 renal

Molecule C#C[C@]1(O)CC[C@H]2[C@@H]3CC=C4c5sc(Nc6ccncc6)nc5CC[C@]4(C)[C@H]3CC[C@@]21C has a GI50 (786-0 renal) of 120 nM, a TGI (786-0 renal) of 648 nM and a GI50 (A498 renal) of 204 nM. The TGI (A498 renal) was 517 nM, the GI50 (A549 NSCLC) was 372 nM and the TGI (A549 NSCLC) was 1820 nM. For the same molecule, the GI50 (ACHN renal) was 484 nM, the TGI (ACHN renal) was 1940 nM and the GI50 (BT-549 breast) was 330 nM. It also gave a TGI (BT-549 breast) of 1620 nM, a GI50 (CAKI-1 renal) of 345 nM and a TGI (CAKI-1 renal) of 1560 nM. For the same molecule, the GI50 (CCRF-CEM leukemia) was 257 nM, the TGI (CCRF-CEM leukemia) was 3750 nM and the GI50 (COLO 205 colon) was 227 nM. For the same molecule, the TGI (COLO 205 colon) was 494 nM, the GI50 (DU-145 prostate) was 1050 nM and the TGI (DU-145 prostate) was 3620 nM. It also gave a GI50 (EKVX NSCLC) of 552 nM, a TGI (EKVX NSCLC) of 3160 nM and a GI50 (HCC-2998 colon) of 1480 nM. It also gave a TGI (HCC-2998 colon) of 2930 nM, a GI50 (HCT-116 colon) of 309 nM and a TGI (HCT-116 colon) of 1200 nM. For the same molecule, the GI50 (HCT-15 colon) was 261 nM, the TGI (HCT-15 colon) was 1190 nM and the GI50 (HL-60(TB) leukemia) was 153 nM. It also gave a TGI (HL-60(TB) leukemia) of 1390 nM, a GI50 (HOP-62 NSCLC) of 266 nM and a TGI (HOP-62 NSCLC) of 1150 nM. For the same molecule, the GI50 (HOP-92 NSCLC) was 312 nM, the TGI (HOP-92 NSCLC) was 1330 nM and the GI50 (HS 578T breast) was 64.5 nM. It also gave a TGI (HS 578T breast) of 580 nM, a GI50 (HT29 colon) of 308 nM and a TGI (HT29 colon) of 1290 nM. For the same molecule, the GI50 (IGROV1 ovarian) was 531 nM, the TGI (IGROV1 ovarian) was 2050 nM and the GI50 (K-562 leukemia) was 247 nM. For the same molecule, the TGI (K-562 leukemia) was 811 nM, the GI50 (KM12 colon) was 387 nM and the TGI (KM12 colon) was 1780 nM. For the same molecule, the GI50 (LOX IMVI melanoma) was 200 nM, the TGI (LOX IMVI melanoma) was 476 nM and the GI50 (M14 melanoma) was 182 nM. For the same molecule, the TGI (M14 melanoma) was 398 nM, the GI50 (MALME-3M melanoma) was 266 nM and the TGI (MALME-3M melanoma) was 994 nM. It also gave a GI50 (MCF7 breast) of 232 nM, a TGI (MCF7 breast) of 1380 nM and a GI50 (MDA-MB-231 breast) of 942 nM. The TGI (MDA-MB-231 breast) was 3280 nM, the GI50 (MDA-MB-435) was 293 nM and the TGI (MDA-MB-435) was 1050 nM. It also gave a GI50 (MOLT-4 leukemia) of 216 nM, a TGI (MOLT-4 leukemia) of 997 nM and a GI50 (NCI-H226 lung) of 1620 nM. For the same molecule, the TGI (NCI-H226 lung) was 22500 nM, the GI50 (NCI-H23 lung) was 657 nM and the TGI (NCI-H23 lung) was 2520 nM. For the same molecule, the GI50 (NCI-H460 lung) was 372 nM, the TGI (NCI-H460 lung) was 1400 nM and the GI50 (NCI-H522 lung) was 740 nM. It also gave a TGI (NCI-H522 lung) of 2220 nM, a GI50 (NCI/ADR-RES ovarian) of 1260 nM and a TGI (NCI/ADR-RES ovarian) of 4480 nM. The GI50 (OVCAR-3 ovarian) was 1480 nM, the TGI (OVCAR-3 ovarian) was 3660 nM and the GI50 (OVCAR-4 ovarian) was 1360 nM. The TGI (OVCAR-4 ovarian) was 3190 nM, the GI50 (OVCAR-5 ovarian) was 1060 nM and the TGI (OVCAR-5 ovarian) was 3130 nM. For the same molecule, the GI50 (OVCAR-8 ovarian) was 987 nM, the TGI (OVCAR-8 ovarian) was 2780 nM and the GI50 (PC-3 prostate) was 243 nM. It also gave a TGI (PC-3 prostate) of 1350 nM, a GI50 (RPMI-8226 leukemia) of 42 nM and a TGI (RPMI-8226 leukemia) of 250 nM. The GI50 (RXF 393 renal) was 25.1 nM, the TGI (RXF 393 renal) was 110 nM and the GI50 (SF-268 CNS) was 445 nM. It also gave a TGI (SF-268 CNS) of 2850 nM, a GI50 (SF-295 CNS) of 91.2 nM and a TGI (SF-295 CNS) of 311 nM. The GI50 (SF-539 CNS) was 108 nM, the TGI (SF-539 CNS) was 318 nM and the GI50 (SK-MEL-2 melanoma) was 342 nM. For the same molecule, the TGI (SK-MEL-2 melanoma) was 1320 nM, the GI50 (SK-MEL-28 melanoma) was 148 nM and the TGI (SK-MEL-28 melanoma) was 394 nM. For the same molecule, the GI50 (SK-MEL-5 melanoma) was 467 nM, the TGI (SK-MEL-5 melanoma) was 1570 nM and the GI50 (SK-OV-3 ovarian) was 268 nM. For the same molecule, the TGI (SK-OV-3 ovarian) was 780 nM, the GI50 (SN12C renal) was 745 nM and the TGI (SN12C renal) was 2110 nM. For the same molecule, the GI50 (SNB-19 CNS) was 305 nM, the TGI (SNB-19 CNS) was 4640 nM and the GI50 (SNB-75 CNS) was 191 nM. The TGI (SNB-75 CNS) was 1930 nM, the GI50 (SR leukemia) was 47.2 nM and the TGI (SR leukemia) was 483 nM. For the same molecule, the GI50 (SW-620 colon) was 284 nM, the TGI (SW-620 colon) was 901 nM and the GI50 (T-47D breast) was 973 nM. For the same molecule, the TGI (T-47D breast) was 3990 nM, the GI50 (TK-10 renal) was 1010 nM and the TGI (TK-10 renal) was 2460 nM. It also gave a GI50 (U251 CNS) of 103 nM, a TGI (U251 CNS) of 1160 nM and a GI50 (UACC-257 melanoma) of 193 nM. The TGI (UACC-257 melanoma) was 416 nM, the GI50 (UACC-62 melanoma) was 223 nM and the TGI (UACC-62 melanoma) was 595 nM. The GI50 (UO-31 renal) was 227 nM and the TGI (UO-31 renal) was 822 nM.
